In ChEMBL document CHEMBL1151505, “Imino 1,2,3,4-tetrahydrocyclopent[b]indole carbamates as dual inhibitors of acetylcholinesterase and monoamine oxidase” (Bioorg Med Chem Lett, 1996) one finds inhibition, IC50 and Inhibition data, which are given here for ten molecules.

“And” between values parts separate entries of the source, which are not always exact repeats. Equal entries are not always repeated. The source made the active and inactive calls. The rule behind the calls is not given here. A value given as a limit tells only on which side of the number the result lay.

Series [1] deals with T1, Amine oxidase [flavin-containing] B (Homo sapiens, UniProt P27338).
T1 sequence (P27338 whole entry): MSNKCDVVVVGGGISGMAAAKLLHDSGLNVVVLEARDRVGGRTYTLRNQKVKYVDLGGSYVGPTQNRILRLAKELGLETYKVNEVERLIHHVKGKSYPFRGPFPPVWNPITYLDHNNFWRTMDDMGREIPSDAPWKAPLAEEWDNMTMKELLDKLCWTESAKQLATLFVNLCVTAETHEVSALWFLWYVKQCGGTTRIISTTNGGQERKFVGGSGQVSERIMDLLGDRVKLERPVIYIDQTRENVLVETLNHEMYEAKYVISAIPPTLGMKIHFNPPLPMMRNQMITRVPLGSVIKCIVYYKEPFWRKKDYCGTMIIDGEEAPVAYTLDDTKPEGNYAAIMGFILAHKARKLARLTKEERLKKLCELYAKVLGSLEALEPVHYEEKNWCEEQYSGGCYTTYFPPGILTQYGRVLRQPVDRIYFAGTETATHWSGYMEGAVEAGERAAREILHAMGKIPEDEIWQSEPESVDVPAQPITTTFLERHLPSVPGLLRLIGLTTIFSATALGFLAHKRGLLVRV
As to the kind of experiment: Compound was tested for inhibition of monoamine oxidase-B (MAO-B) at 50 mg/kg dose upon peroral administration in 48 time interval. Type of series: organism-based. Also noted: dose 50 mg/kg, route oral. Conditions: po.

The target of series [2] is T2, Acetylcholinesterase (Homo sapiens, UniProt P22303). As to the kind of experiment: Compound was tested for inhibition of acetylcholinesterase at 50 mg/kg dose upon peroral administration in 1 hr time interval. Type of series: organism-based. Also noted: dose 50 mg/kg.
T2 sequence (P22303 whole entry): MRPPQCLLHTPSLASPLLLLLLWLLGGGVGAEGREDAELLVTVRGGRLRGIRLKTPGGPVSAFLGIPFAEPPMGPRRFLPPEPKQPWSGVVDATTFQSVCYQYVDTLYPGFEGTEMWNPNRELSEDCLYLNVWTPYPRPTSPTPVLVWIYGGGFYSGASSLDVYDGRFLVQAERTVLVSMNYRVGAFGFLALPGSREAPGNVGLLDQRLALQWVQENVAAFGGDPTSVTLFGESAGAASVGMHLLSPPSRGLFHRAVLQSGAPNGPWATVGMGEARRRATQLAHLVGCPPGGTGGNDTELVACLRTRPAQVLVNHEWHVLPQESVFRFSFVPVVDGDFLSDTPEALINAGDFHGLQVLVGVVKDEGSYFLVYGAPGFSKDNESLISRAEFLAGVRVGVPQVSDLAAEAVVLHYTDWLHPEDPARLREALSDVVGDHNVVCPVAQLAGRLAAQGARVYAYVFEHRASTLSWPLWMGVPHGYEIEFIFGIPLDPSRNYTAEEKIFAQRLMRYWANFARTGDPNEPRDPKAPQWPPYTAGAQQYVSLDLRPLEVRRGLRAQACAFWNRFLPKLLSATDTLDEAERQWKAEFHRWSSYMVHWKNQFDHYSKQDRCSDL
For series [3], the target named is T3, Amine oxidase [flavin-containing] A (Homo sapiens, UniProt P21397).
T3 sequence (P21397 whole entry): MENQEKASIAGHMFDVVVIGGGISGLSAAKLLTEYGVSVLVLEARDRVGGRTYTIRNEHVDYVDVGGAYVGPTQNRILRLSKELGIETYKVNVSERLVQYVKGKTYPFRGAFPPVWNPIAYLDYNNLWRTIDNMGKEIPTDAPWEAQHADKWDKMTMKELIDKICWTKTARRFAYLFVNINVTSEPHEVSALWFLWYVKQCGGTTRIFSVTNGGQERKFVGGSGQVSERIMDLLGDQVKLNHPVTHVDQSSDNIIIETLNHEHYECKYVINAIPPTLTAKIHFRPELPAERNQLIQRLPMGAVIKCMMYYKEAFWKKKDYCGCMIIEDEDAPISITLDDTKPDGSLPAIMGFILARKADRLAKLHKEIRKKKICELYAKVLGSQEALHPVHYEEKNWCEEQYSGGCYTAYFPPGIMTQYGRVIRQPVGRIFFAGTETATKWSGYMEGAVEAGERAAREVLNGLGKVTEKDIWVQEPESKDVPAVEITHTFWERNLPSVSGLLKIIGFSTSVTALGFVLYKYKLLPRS
As to the kind of experiment: Compound was tested for inhibition of monoamine oxidase-A (MAO-A) at 50 mg/kg dose upon peroral administration in 48 time interval. Format: organism-based. Also noted: dose 50 mg/kg, route oral. Conditions: po.

The target of series [4] is T1, Amine oxidase [flavin-containing] B. As to the kind of experiment: Compound was tested for inhibition of monoamine oxidase-B (MAO-B).
For series [5], the target named is T3, Amine oxidase [flavin-containing] A. As to the kind of experiment: Compound was tested for inhibition of monoamine oxidase-A (MAO-A) at 50 mg/kg dose upon peroral administration in 1 hr time interval. Type of series: organism-based. Also noted: dose 50 mg/kg, route oral. Particulars: po.
Series [6] concerns the target T2, Acetylcholinesterase. As to the kind of experiment: Inhibition of acetylcholinesterase.
Series [7] addresses T2, Acetylcholinesterase. As to the kind of experiment: Compound was tested for inhibition of acetylcholinesterase at […] dose upon peroral administration in 0.5 hr time interval.
The target in series [8] is T3, Amine oxidase [flavin-containing] A. As to the kind of experiment: Compound was tested for inhibition of monoamine oxidase-A (MAO-A) at 50 mg/kg dose upon peroral administration in 0.5 hr time interval. Format: organism-based. Set-up: dose 50 mg/kg, route oral. Particulars: po.
Series [9] has as its target T2, Acetylcholinesterase. As to the kind of experiment: Compound was tested for inhibition of acetylcholinesterase at 50 mg/kg dose upon peroral administration in 4 hr time interval. Format: organism-based. Also noted: dose 50 mg/kg.
In series [10] the target is T1, Amine oxidase [flavin-containing] B. As to the kind of experiment: Compound was tested for inhibition of monoamine oxidase-B (MAO-B) at 50 mg/kg dose upon peroral administration in 0.5 hr time interval. Format: organism-based. Set-up: dose 50 mg/kg, route oral. Conditions: po.
In series [11] the target is T2, Acetylcholinesterase. As to the kind of experiment: Compound was tested for inhibition of acetylcholinesterase at 50 mg/kg dose upon peroral administration in 24 hr time interval. Format: organism-based. Set-up: dose 50 mg/kg.
Series [12] addresses T3, Amine oxidase [flavin-containing] A. As to the kind of experiment: Compound was tested for inhibition of monoamine oxidase-A (MAO-A) at 50 mg/kg dose upon peroral administration in 24 hr time interval. Type of series: organism-based. Also noted: dose 50 mg/kg, route oral. Conditions: po.
Series [13] has as its target T1, Amine oxidase [flavin-containing] B. As to the kind of experiment: Compound was tested for inhibition of monoamine oxidase-B (MAO-B) at 50 mg/kg dose upon peroral administration in 4 hr time interval. Conditions: po. Type of series: organism-based. Set-up: dose 50 mg/kg, route oral.
Series [14] concerns the target T3, Amine oxidase [flavin-containing] A. As to the kind of experiment: Compound was tested for inhibition of monoamine oxidase-A (MAO-A).
For series [15] the target is unchanged. As to the kind of experiment: Compound was tested for inhibition of monoamine oxidase-A (MAO-A) at 50 mg/kg dose upon peroral administration in 4 hr time interval. Particulars: po. Type of series: organism-based. Set-up: dose 50 mg/kg, route oral.
Series [16] has as its target T1, Amine oxidase [flavin-containing] B. As to the kind of experiment: Compound was tested for inhibition of monoamine oxidase-B (MAO-B) at 50 mg/kg dose upon peroral administration in 24 hr time interval. Format: organism-based. Set-up: dose 50 mg/kg, route oral. Conditions: po.
The target is the same in series [17]. As to the kind of experiment: Compound was tested for inhibition of monoamine oxidase-B (MAO-B) at 50 mg/kg dose upon peroral administration in 1 hr time interval. Format: organism-based. Also noted: dose 50 mg/kg, route oral. Conditions: po.
Series [18] addresses T3, Amine oxidase [flavin-containing] A. As to the kind of experiment: Compound was tested for inhibition of monoamine oxidase-A (MAO-A) at 50 mg/kg dose upon peroral administration in 48 hr time interval. Set-up: dose 50 mg/kg, route oral. Type of series: organism-based. Particulars: po.
Series [19] has as its target T2, Acetylcholinesterase. Particulars: 50 mg/kg.
In series [20] the target is T1, Amine oxidase [flavin-containing] B. As to the kind of experiment: Compound was tested for inhibition of monoamine oxidase-B (MAO-B) at 50 mg/kg dose upon peroral administration in 48 hr time interval. Type of series: organism-based. Also noted: dose 50 mg/kg, route oral. Particulars: in vivo, po.
Series [21] concerns the target T2, Acetylcholinesterase. Conditions: 50 mg/kg. The source holds these as a separate data set.
Series [22] deals with T2, Acetylcholinesterase. Conditions: 50 mg/kg. The source holds these as a separate data set.
In series [23] the target is T1, Amine oxidase [flavin-containing] B. As to the kind of experiment: Compound was tested for inhibition of monoamine oxidase-B (MAO-B) at 10 mg/kg dose upon peroral administration in 48 hr time interval. Also noted: dose 10 mg/kg, route oral. Type of series: organism-based. Particulars: po.
For series [24], the target named is T3, Amine oxidase [flavin-containing] A. As to the kind of experiment: Compound was tested for inhibition of monoamine oxidase-A (MAO-A) at 10 mg/kg dose upon peroral administration in 1 hr time interval. Format: organism-based. Set-up: dose 10 mg/kg, route oral. Conditions: po.
The target is the same in series [25]. As to the kind of experiment: Compound was tested for inhibition of monoamine oxidase-A (MAO-A) at 10 mg/kg dose upon peroral administration in 48 hr time interval. Particulars: po. Format: organism-based. Set-up: dose 10 mg/kg, route oral.
The target in series [26] is T1, Amine oxidase [flavin-containing] B. As to the kind of experiment: Compound was tested for inhibition of monoamine oxidase-B (MAO-B) at 10 mg/kg dose upon peroral administration in 24 hr time interval. Particulars: po. Type of series: organism-based. Also noted: dose 10 mg/kg, route oral.
For series [27], the target named is T3, Amine oxidase [flavin-containing] A. As to the kind of experiment: Compound was tested for inhibition of monoamine oxidase-A (MAO-A) at 10 mg/kg dose upon peroral administration in 4 hr time interval. Particulars: po. Type of series: organism-based. Also noted: dose 10 mg/kg, route oral.
Series [28] has as its target T1, Amine oxidase [flavin-containing] B. As to the kind of experiment: Compound was tested for inhibition of monoamine oxidase-B (MAO-B) at 10 mg/kg dose upon peroral administration in 1 hr time interval. Type of series: organism-based. Also noted: dose 10 mg/kg, route oral. Conditions: po.
For series [29], the target named is T3, Amine oxidase [flavin-containing] A. As to the kind of experiment: Compound was tested for inhibition of monoamine oxidase-A (MAO-A) at 10 mg/kg dose upon peroral administration in 24 hr time interval. Type of series: organism-based. Set-up: dose 10 mg/kg, route oral. Particulars: po.
The target in series [30] is T1, Amine oxidase [flavin-containing] B. As to the kind of experiment: Compound was tested for inhibition of monoamine oxidase-B (MAO-B) at 10 mg/kg dose upon peroral administration in 4 hr time interval. Conditions: po. Format: organism-based. Set-up: dose 10 mg/kg, route oral.
The target of series [31] is T2, Acetylcholinesterase. Particulars: 10 mg/kg.
Description: Compound was tested for inhibition of acetylcholinesterase at 10 mg/kg dose upon peroral administration in 0.5 hr time interval
The target of series [32] is T2, Acetylcholinesterase. Particulars: 10 mg/kg. The source holds these as a separate data set.
Description: Compound was tested for inhibition of acetylcholinesterase at 10 mg/kg dose upon peroral administration in 1 hr time interval
Series [33] concerns the target T2, Acetylcholinesterase. Particulars: 10 mg/kg. The source holds these as a separate data set.
Description: Compound was tested for inhibition of acetylcholinesterase at 10 mg/kg dose upon peroral administration in 4 hr time interval
For series [34], the target named is T2, Acetylcholinesterase. Conditions: 10 mg/kg. The source holds these as a separate data set.
Description: Compound was tested for inhibition of acetylcholinesterase at 10 mg/kg dose upon peroral administration in 24 hr time interval

With `CC/N=C1/CCc2c1n(C)c1ccc(OC(=O)NC)c(Br)c21`, the inhibition at 50 mg/kg stood at 9.3% in [1]; 11.7% in series [3]; 33.3% in series [5]; 28.2% in series [8]; 21.5% in series [10]; 13.1% in [12]. Also, the inhibition at 50 mg/kg in series [13] came to 25.9%; in series [15], 48.9%; in series [16], 17.8%; in series [17] it was 17.2%. Besides, the inhibition on Acetylcholinesterase [2] was 19.4%; on Acetylcholinesterase [7], 15.1%; on Acetylcholinesterase [9] it was 30.9%; against Acetylcholinesterase [11] it was 0.2%. The IC50 in series [4] was over 1000 µM; on Acetylcholinesterase [6], 0.14 µM; in series [14], 0.21 µM.

Turning to `CC/N=C1/CCc2c1n(C)c1ccccc21`, the concentration for half-maximal inhibition (IC50) in series [4] came to 77.6 µM; in series [14] it was 2.12 µM.

Consider `C/N=C1/CCc2c1n(C)c1ccc(OC(=O)N(C)C)c(Br)c21`, for which the IC50 in [4] worked out at 51 µM; against Acetylcholinesterase [6], 0.06 µM; in series [14], 0.54 µM. The inhibition at 50 mg/kg was determined as 44% in [5]; 22.3% in series [18]; 23.2% in series [12]; 25.9% in series [13]; 58.8% in series [15]; 6.6% in series [16]. The inhibition result at Acetylcholinesterase [19], at Acetylcholinesterase [21] and at Acetylcholinesterase [22] was “inactive” in each case. Besides, in series [20], the Inhibition was 10.1% and 20.4%.

Regarding `C/N=C1/CCc2c1n(C)c1ccc(OC(=O)NC)c(Br)c21`, the IC50 in [4] was over 1000 µM; on Acetylcholinesterase [6] it was 0.18 µM; in series [14] it was 0.65 µM.

As to `C/N=C1/CCc2c1n(C)c1ccc(OC(=O)NCc3ccccc3)c(Br)c21`, the IC50 in [4] is over 1000 µM; against Acetylcholinesterase [6], 4.19 µM; in series [14], 5.47 µM.

As to `CCC/N=C1/CCc2c1n(C)c1ccccc21`, the IC50 in series [4] is over 1000 µM; in series [14] it was 1.61 µM.

Turning to `COc1cc(Br)c2oc(C3CCNCC3)cc2c1` [BROFAROMINE], the inhibition at 10 mg/kg in series [23] is 18.3%; in series [24], 52.1%; in [25], 13.2%; in series [26], 22.2%; in series [27] it was 64.2%; in [28], 29.6%. The figures for the inhibition at 10 mg/kg in series [29] and in [30] were 28.7% and 42.6%, respectively. In addition, the IC50 stood at 23.4 µM in series [4] and 0.18 µM in [14].

For the molecule `C/N=C1/CCc2c1n(C)c1cc(Cl)c(OC(=O)NC)cc21`, the values for the IC50 (in series [4]; at Acetylcholinesterase [6]; in series [14]) were 395 µM, 0.67 µM and 22.5 µM, respectively.

Consider `CCCCNC(=O)Oc1ccc2c(c1Br)c1c(n2C)/C(=N\C)CC1`, for which the 50% inhibitory concentration (IC50) in [4] stood at 175 µM; on Acetylcholinesterase [6], 3.17 µM; in series [14] it was 0.75 µM.

In the case of `CCCCCCCNC(=O)Oc1ccc2c(c1)[C@]1(C)CCN(C)[C@@H]1N2C` [EPTASTIGMINE], the inhibition at Acetylcholinesterase [31] came to 33.2%; against Acetylcholinesterase [32], 52.3%; against Acetylcholinesterase [33] it was 72.9%; at Acetylcholinesterase [34], 20.8%. Also, half-maximal inhibition at Acetylcholinesterase [6] (IC50) was put at 0.009 µM.
